Reference: patent publication US20230346784A1 (priority 2020, published 2023)
In brackets after ≈: the same amount, converted by molar mass. Entries after “also recorded” stand apart in the source; their conditions may differ.

What was measured:
[1] = test system: TF1PIGAnull cells; type: cell-based, human
[2] = test system: C5b-9 deposition on TF1PIGAnull cells; type: cell-based, human
[3] = test system: C3c deposition on TF1PIGAnull cells; type: cell-based, human
[4] = test system: SARS-CoV-2 spike proteins binding to TF1PIGAnull cells; test: Flow cytometry of coronavirus protein binding to TF1PIGAnull cells (heparan sulfate blockade, sialidase treatment); parameters: species or system human; conditions: sulfate sodium salt; for binding of S1 subunit to TF1PIGAnull cells: 5 μg/mL His-tagged S1 co-incubated with 2 mg/mL heparan sulfate solution; for binding of S2 subunit to TF1PIGAnull cells: 5 μg/mL His-tagged S2 co-incubated with 2 mg/mL heparan sulfate solution
[5] = test system: APH; test: APH inhibition / IC50 threshold used with simulated concentrations (FIG. 11); parameters: species or system human; conditions: dotted line in FIG. 11, serum ALXN2040 concentration

Q: How did the “cell killing in the mHam assay induced by S1 and S2” value [1] turn out when `CC(=O)c1nn(CC(=O)N2[C@H]3C[C@]4(C[C@@H]24)Cn2cc(nn2)COCc2ccc(Br)nc2NC3=O)c2ccc(-c3cnc(C)nc3)cc12` [Compound 2] was run?
A: inhibited; also recorded: prevented cell death

Q: What about the “C5b-9 deposition induced by S1 and S2” value [2] of the same compound?
A: inhibit

Q: What about the “S1-induced C5b-9 deposition” value [2] of the same compound?
A: blocking; also recorded: completely blocked

Q: What about the “S2-induced C5b-9 deposition” value [2] of the same compound?
A: blocking

Q: What about the “C3c deposition induced by S1 and S2” value [3] of the same compound?
A: more potent in blocking C3c deposition; also recorded: inhibit

Q: What about the “S1-induced C3c deposition” value [3] of the same compound?
A: blocking; also recorded: completely blocked

Q: What about the “S2-induced C3c deposition” value [3] of the same compound?
A: blocking

Q: For Heparan sulfate sodium salt, which “binding of S1 subunit to TF1PIGAnull cells” value ([4]; listed as HS) is on record?
A: significantly blocked

Q: What about the “binding of S1 subunit to TF1PIGAnull cells” value [4] of the same compound?
A: completely blocked

Q: What about the “binding of S2 subunit to TF1PIGAnull cells” value ([4]; listed as HS) of the same compound?
A: significantly blocked

Q: What about the “binding of S2 subunit to TF1PIGAnull cells” value [4] of the same compound?
A: completely blocked

Q: Which IC50 value [5] does the source give for `CC(=O)c1nn(CC(=O)N2C[C@H](F)C[C@H]2C(=O)Nc2cccc(Br)n2)c2ccc(-c3cnc(C)nc3)cc12` [Compound 1, danicopan] here?
A: 0.235 µg/mL (≈ 0.405 µM)
